# From ChEMBL document CHEMBL3758163, “Extended structure-activity study of thienopyrimidine-based EGFR inhibitors with evaluation of drug-like properties” (Eur J Med Chem, 2016)
# Tests used:
# [1] = molecular target: Protein kinase C beta type (Homo sapiens) (UniProt P05771); assay: Inhibition of PRKCB1 (unknown origin) at 500 nM
# [2] = molecular target: Tyrosine-protein kinase CSK (Homo sapiens) (UniProt P41240); assay: Inhibition of CSK (unknown origin) at 500 nM
# [3] = molecular target: T1, Serine/threonine-protein kinase Nek1 (Homo sapiens) (UniProt Q96PY6); assay: Inhibition of NEK1 (unknown origin) at 500 nM
# T1 sequence (whole entry): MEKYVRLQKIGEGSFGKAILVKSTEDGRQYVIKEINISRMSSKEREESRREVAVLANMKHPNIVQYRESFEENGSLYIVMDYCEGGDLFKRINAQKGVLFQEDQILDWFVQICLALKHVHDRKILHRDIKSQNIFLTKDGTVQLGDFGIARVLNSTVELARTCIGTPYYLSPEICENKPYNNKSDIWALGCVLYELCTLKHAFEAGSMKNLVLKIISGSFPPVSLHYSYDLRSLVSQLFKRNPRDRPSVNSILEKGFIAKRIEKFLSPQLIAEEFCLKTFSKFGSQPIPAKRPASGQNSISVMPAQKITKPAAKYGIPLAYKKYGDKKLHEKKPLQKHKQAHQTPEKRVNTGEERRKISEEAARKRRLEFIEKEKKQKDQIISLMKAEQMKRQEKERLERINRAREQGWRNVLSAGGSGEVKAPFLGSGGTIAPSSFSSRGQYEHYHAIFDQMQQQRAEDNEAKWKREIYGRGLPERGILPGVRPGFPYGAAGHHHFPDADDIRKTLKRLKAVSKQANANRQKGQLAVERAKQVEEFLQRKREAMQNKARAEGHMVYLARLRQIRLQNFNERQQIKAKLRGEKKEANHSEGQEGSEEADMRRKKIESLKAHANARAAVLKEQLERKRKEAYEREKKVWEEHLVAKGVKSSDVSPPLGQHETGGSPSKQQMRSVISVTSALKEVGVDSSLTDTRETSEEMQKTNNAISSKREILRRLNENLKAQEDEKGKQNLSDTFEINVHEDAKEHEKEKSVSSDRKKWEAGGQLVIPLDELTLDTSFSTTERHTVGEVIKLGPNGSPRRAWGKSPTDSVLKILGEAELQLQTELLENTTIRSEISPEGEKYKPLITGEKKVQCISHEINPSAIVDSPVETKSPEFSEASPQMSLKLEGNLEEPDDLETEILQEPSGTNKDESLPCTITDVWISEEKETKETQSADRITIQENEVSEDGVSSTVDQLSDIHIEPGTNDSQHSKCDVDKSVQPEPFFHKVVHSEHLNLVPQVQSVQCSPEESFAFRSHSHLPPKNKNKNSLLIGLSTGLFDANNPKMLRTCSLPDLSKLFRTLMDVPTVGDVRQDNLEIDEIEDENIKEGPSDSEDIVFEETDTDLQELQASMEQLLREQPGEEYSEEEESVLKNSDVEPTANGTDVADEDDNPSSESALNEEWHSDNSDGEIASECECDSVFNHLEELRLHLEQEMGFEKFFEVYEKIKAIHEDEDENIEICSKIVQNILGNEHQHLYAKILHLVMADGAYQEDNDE
# [4] = molecular target: Receptor tyrosine-protein kinase erbB-4 (Homo sapiens) (UniProt Q15303); assay: Inhibition of ERBB4 (unknown origin) at 500 nM
# [5] = molecular target: Aurora kinase B (Homo sapiens) (UniProt Q96GD4); assay: Inhibition of AURKB (unknown origin) at 500 nM
# [6] = molecular target: Serine/threonine-protein kinase pim-2 (Homo sapiens) (UniProt Q9P1W9); assay: Inhibition of PIM2 (unknown origin) at 500 nM
# [7] = molecular target: Angiopoietin-1 receptor (Homo sapiens) (UniProt Q02763); assay: Inhibition of TEK (unknown origin) at 500 nM
# [8] = molecular target: cAMP-dependent protein kinase catalytic subunit alpha (Homo sapiens) (UniProt P17612); assay: Inhibition of PRKACA (unknown origin) at 500 nM
# [9] = molecular target: Dual specificity mitogen-activated protein kinase kinase 1 (Homo sapiens) (UniProt Q02750); assay: Inhibition of MAP2K1 (unknown origin) at 500 nM
# [10] = molecular target: Fibroblast growth factor receptor 1 (Homo sapiens) (UniProt P11362); assay: Inhibition of FGFR1 (unknown origin) at 500 nM
# [11] = molecular target: Platelet-derived growth factor receptor alpha (Homo sapiens) (UniProt P16234); assay: Inhibition of PDGFRA (unknown origin) at 500 nM
# [12] = molecular target: Vascular endothelial growth factor receptor 2 (Homo sapiens) (UniProt P35968); assay: Inhibition of KDR (unknown origin) at 500 nM
# [13] = molecular target: Proto-oncogene tyrosine-protein kinase Src (Homo sapiens) (UniProt P12931); assay: Inhibition of SRC (unknown origin) at 500 nM
# [14] = molecular target: Epidermal growth factor receptor (Homo sapiens, UniProt P00533); assay: Inhibition of EGFR (unknown origin) by Z -LYTE assay
# [15] = molecular target: Glycogen synthase kinase-3 beta (Homo sapiens) (UniProt P49841); assay: Inhibition of GSK3B (unknown origin) at 500 nM
# [16] = molecular target: Hepatocyte growth factor receptor (Homo sapiens) (UniProt P08581); assay: Inhibition of MET (unknown origin) at 500 nM
# [17] = molecular target: T2, Serine/threonine-protein kinase Chk1 (Homo sapiens) (UniProt O14757); assay: Inhibition of CHEK1 (unknown origin) at 500 nM
# T2 sequence (whole entry): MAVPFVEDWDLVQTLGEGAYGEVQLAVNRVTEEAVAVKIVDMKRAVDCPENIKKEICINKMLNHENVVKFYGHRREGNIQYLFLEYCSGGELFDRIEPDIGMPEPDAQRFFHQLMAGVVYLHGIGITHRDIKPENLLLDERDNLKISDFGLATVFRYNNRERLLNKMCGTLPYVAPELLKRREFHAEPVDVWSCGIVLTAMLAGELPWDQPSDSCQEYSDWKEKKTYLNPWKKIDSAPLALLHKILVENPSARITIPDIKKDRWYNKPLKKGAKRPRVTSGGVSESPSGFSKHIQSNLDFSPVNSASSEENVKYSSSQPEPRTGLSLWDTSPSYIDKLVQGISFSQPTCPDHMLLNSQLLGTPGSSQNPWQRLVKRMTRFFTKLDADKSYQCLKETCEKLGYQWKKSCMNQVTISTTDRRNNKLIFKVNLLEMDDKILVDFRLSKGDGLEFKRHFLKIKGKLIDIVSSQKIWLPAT
# Dual specificity mitogen-activated protein kinase kinase 1 (Homo sapiens), sequence (Q02750 whole entry): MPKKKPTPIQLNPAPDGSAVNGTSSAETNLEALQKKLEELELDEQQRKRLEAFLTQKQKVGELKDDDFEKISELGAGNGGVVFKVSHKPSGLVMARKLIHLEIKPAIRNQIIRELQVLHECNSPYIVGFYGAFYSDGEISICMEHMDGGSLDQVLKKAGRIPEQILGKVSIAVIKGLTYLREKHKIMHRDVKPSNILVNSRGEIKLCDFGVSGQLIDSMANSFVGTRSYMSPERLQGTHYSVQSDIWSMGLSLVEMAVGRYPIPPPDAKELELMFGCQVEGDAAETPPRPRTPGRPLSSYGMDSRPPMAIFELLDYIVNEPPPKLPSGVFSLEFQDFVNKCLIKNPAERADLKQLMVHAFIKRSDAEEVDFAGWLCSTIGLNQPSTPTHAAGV
# Hepatocyte growth factor receptor (Homo sapiens), sequence (P08581 whole entry): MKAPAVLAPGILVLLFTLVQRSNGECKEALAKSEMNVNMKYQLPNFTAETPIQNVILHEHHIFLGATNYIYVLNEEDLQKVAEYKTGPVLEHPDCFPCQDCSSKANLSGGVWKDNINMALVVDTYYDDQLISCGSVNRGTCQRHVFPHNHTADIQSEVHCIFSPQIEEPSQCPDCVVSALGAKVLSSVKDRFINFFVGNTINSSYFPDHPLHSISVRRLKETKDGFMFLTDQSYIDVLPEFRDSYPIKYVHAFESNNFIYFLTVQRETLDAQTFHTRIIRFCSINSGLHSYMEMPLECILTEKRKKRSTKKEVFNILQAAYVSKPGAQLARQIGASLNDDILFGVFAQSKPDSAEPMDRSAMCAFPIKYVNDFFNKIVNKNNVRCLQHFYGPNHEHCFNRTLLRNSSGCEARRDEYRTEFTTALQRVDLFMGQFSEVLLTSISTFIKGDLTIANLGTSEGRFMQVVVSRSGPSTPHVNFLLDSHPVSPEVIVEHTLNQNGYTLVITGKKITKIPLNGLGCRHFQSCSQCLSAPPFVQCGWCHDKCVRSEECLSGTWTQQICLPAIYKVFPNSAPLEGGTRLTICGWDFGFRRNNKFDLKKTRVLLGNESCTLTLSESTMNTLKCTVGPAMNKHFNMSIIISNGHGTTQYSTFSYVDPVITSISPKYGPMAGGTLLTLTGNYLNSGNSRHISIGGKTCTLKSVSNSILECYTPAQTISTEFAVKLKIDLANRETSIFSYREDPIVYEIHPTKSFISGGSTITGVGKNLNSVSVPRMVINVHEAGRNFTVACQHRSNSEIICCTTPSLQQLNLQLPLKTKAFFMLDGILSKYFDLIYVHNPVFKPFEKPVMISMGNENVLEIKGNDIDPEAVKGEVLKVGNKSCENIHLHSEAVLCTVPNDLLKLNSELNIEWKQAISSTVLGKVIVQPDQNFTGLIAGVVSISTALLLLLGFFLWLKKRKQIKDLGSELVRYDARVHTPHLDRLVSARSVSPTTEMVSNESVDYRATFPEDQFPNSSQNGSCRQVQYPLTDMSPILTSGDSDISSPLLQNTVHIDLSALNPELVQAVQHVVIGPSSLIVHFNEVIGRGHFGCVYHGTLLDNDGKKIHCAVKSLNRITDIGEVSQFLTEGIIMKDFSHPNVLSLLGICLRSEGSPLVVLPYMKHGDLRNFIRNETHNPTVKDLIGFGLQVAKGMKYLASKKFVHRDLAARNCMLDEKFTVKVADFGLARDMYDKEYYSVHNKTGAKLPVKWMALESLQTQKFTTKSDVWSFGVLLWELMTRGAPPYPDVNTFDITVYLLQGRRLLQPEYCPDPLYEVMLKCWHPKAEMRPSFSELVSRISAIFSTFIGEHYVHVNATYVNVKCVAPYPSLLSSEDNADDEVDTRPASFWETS
# Serine/threonine-protein kinase pim-2 (Homo sapiens), sequence (Q9P1W9 whole entry, looked up): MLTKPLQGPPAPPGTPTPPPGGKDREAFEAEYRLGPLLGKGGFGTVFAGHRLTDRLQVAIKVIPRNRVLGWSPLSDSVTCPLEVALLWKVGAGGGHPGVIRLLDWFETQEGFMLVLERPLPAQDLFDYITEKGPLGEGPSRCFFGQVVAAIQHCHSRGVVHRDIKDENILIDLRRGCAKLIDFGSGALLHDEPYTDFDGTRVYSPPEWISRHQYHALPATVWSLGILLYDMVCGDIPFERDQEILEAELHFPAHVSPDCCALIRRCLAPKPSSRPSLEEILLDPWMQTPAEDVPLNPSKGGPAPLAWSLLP
# Receptor tyrosine-protein kinase erbB-4 (Homo sapiens), sequence (Q15303 whole entry): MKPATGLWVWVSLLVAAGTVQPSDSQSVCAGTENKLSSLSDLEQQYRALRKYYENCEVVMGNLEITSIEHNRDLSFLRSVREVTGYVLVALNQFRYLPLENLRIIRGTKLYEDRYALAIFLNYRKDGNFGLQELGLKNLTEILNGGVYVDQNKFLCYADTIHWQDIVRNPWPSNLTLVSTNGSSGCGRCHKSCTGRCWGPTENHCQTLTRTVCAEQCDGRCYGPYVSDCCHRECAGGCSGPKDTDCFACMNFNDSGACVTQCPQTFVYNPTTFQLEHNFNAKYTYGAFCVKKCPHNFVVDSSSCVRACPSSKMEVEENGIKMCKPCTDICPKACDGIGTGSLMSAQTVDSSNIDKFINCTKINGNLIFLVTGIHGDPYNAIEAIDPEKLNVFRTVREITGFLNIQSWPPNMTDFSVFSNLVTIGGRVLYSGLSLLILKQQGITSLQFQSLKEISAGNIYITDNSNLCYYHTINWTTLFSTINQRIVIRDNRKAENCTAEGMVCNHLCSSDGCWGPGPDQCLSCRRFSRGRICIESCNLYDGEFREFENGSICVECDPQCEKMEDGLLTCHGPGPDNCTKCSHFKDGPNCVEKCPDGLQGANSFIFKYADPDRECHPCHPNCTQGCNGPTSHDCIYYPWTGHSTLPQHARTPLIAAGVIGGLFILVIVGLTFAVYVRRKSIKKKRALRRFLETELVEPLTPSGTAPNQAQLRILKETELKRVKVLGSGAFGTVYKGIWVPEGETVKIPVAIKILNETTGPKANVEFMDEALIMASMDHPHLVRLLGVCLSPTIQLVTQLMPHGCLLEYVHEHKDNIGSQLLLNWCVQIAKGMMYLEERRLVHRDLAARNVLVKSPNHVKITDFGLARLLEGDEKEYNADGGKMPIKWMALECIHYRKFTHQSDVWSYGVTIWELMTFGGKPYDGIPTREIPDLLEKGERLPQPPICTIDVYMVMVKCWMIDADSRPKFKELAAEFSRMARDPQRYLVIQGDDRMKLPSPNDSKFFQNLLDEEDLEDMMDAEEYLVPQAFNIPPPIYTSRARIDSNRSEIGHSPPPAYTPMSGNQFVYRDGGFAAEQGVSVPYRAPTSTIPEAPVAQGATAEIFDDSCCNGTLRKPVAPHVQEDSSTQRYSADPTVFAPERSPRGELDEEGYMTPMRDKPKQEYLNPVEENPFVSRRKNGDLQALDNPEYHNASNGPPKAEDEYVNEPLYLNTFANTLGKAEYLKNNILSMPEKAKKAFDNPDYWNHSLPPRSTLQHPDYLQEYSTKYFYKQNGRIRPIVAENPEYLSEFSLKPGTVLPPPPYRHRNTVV
# Aurora kinase B (Homo sapiens), sequence (Q96GD4 whole entry): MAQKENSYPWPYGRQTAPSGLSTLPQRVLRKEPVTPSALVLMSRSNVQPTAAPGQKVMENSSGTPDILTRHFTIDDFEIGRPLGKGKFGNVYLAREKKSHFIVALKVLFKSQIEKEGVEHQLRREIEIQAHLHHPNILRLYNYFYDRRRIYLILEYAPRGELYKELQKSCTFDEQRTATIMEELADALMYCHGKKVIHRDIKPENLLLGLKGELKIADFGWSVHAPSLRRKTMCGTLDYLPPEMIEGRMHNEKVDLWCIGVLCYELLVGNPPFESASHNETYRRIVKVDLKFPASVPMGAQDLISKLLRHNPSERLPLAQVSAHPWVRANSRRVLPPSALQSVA
# Glycogen synthase kinase-3 beta (Homo sapiens), sequence (P49841 whole entry, looked up): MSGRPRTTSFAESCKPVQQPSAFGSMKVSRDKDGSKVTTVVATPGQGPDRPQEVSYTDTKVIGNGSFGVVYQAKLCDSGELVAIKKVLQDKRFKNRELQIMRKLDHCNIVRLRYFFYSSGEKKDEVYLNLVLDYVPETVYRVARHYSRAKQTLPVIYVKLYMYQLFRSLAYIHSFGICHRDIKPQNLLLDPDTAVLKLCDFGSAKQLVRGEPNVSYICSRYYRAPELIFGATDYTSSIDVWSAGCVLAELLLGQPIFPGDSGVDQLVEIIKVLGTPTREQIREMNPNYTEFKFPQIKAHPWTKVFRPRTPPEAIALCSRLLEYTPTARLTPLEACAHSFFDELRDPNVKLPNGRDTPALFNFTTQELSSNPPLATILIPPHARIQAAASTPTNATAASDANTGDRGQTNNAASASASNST
# Tyrosine-protein kinase CSK (Homo sapiens), sequence (P41240 2-450 limits assumed): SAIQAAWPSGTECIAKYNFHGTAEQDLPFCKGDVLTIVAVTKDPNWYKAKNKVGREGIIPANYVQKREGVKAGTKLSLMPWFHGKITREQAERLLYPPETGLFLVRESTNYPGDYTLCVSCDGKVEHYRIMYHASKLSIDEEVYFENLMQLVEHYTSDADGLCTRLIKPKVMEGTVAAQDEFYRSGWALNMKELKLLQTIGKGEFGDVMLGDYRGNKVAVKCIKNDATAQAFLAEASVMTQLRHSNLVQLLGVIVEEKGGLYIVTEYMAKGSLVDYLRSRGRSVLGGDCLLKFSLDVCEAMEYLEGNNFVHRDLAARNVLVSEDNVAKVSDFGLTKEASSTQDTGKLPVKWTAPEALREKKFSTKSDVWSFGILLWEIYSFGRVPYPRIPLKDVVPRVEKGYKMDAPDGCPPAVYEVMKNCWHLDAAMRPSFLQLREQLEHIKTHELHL
Structure (SMILES),inhibition [1],inhibition [2],inhibition [3],inhibition [4],inhibition [5],inhibition [6],inhibition [7],inhibition [8],inhibition [9],inhibition [10],inhibition [11],inhibition [12],inhibition [13],IC50 [14],inhibition [15],inhibition [16],inhibition [17]
COc1cc(C(N)=O)ccc1-c1cc2c(N[C@H](CO)c3ccccc3)ncnc2s1,5%,12%,3%,62%,6%,11%,7%,-5%,10%,-10%,0%,7%,20%,1.5 nM,17%,-5%,
COc1cc(CO)ccc1-c1cc2c(N[C@H](CO)c3ccccc3)ncnc2s1,4%,5%,13%,63%,10%,1%,13%,1%,18%,4%,1%,12%,9%,,8%,3%,15%
C#Cc1cccc(Nc2ncnc3sc(-c4ccc(CO)cc4OC)cc23)c1,-2%,8%,-6%,12%,21%,11%,-1%,-1%,3%,-6%,-9%,8%,15%,5 nM,8%,,-3%
CN(C)CCNC(=O)c1ccc(-c2cc3c(N[C@H](CO)c4ccccc4)ncnc3s2)cc1,18%,13%,,30%,23%,1%,9%,-5%,12%,-5%,10%,10%,17%,2 nM,3%,-3%,-5%
COc1ccc(C(=O)NCCN(C)C)cc1-c1cc2c(N[C@H](C)c3ccccc3)ncnc2s1,-2%,3%,-4%,46%,-2%,-4%,-3%,9%,3%,-4%,-3%,10%,9%,0.5 nM,13%,-9%,-8%
C#Cc1cccc(Nc2ncnc3cc(OCCOC)c(OCCOC)cc23)c1 [ERLOTINIB],-2%,8%,-8%,78%,44%,,5%,-10%,,-4%,,,42%,,-8%,11%,-7%
C[C@@H](Nc1ncnc2sc(-c3ccc(C(=O)NCCN(C)C)cc3)cc12)c1ccccc1,2%,10%,4%,14%,17%,3%,3%,-6%,6%,-7%,15%,6%,18%,2 nM,5%,,-6%
COc1cc(CO)ccc1-c1cc2c(N[C@H](C)c3ccccc3)ncnc2s1,1%,7%,1%,30%,1%,1%,1%,2%,4%,1%,1%,12%,10%,,7%,15%,1%
C[C@@H](Nc1ncnc2sc(-c3ccccc3C(N)=O)cc12)c1ccccc1,3%,12%,3%,10%,2%,0%,0%,-8%,3%,-6%,-7%,-4%,12%,276 nM,6%,,-4%
COc1cc(CO)ccc1-c1cc2c(Nc3ccc(F)c(Cl)c3)ncnc2s1,-2%,15%,,31%,7%,6%,11%,8%,12%,-7%,5%,3%,14%,2 nM,4%,-5%,
COc1cc(CO)ccc1-c1cc2c(Nc3ccccc3)ncnc2s1,-7%,18%,-5%,22%,10%,5%,8%,2%,15%,-4%,7%,10%,17%,14 nM,5%,7%,
